How the values were obtained:
human MAGL [1] = molecular target: T1, human MAGL (Homo sapiens, UniProt Q99685); set-up: purchased Cayman Chemical; method as in PMID 33045662; settings: reference benzoylpiperidines; read-out: IC50 hMAGL; cited from earlier work
T1 sequence (Q99685 1-303): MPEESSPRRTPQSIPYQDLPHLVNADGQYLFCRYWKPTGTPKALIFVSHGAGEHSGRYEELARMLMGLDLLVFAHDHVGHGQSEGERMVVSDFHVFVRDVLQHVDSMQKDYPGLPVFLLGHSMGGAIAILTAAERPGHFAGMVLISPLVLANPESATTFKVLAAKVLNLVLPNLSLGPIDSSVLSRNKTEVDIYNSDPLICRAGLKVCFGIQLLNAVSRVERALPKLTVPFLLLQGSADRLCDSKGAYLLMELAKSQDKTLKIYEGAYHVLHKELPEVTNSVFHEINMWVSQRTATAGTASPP

human FAAH = molecular target: T2, human FAAH (Homo sapiens, UniProt O00519); set-up: purchased Cayman Chemical; method as in PMID 33045662; settings: reference benzoylpiperidines; read-out: IC50 hFAAH; cited from earlier work
T2 sequence (O00519 1-579): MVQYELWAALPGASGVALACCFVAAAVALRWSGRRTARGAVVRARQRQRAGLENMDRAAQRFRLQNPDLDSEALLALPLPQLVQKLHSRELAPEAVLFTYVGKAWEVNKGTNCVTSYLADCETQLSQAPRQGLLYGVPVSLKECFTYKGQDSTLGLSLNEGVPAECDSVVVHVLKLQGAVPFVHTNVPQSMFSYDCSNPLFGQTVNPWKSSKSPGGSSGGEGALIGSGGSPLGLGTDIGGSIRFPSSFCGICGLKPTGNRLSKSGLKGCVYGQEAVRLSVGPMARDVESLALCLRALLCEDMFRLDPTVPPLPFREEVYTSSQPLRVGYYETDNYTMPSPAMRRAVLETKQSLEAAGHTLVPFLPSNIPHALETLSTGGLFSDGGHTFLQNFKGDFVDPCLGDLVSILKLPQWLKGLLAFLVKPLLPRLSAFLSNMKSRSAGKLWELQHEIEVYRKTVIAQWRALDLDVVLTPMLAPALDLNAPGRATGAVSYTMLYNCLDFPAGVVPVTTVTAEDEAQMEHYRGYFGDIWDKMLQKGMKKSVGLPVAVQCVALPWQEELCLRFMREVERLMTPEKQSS

human MAGL [2] = molecular target: T1, human MAGL
[3] = test system: PDAC3 primary cell culture; experiment: Growth inhibition, SRB assay, PDAC3; format: cell-based, human; settings: PDAC3, SRB
[4] = test system: active caspase-3 in PDAC3 cells; experiment: Active caspase-3 immunoassay, PDAC3; format: cell-based, human; settings: PDAC3, compared to untreated cells
MAGL = MAGL (Mus musculus, UniProt O35678)
PDAC3 cells = experiment: Wound-healing/migration assay, PDAC3; format: cell-based, human; settings: PDAC3, 20 h, drug at 5× IC50; control 59 ± 8%
[5] = test system: active caspase-3 in PDAC2 cells; experiment: Active caspase-3 immunoassay, PDAC2; format: cell-based, human; settings: untreated 0.35
PDAC2 cells = settings: PDAC2, single agent

Chain of MAGL (O35678 whole entry): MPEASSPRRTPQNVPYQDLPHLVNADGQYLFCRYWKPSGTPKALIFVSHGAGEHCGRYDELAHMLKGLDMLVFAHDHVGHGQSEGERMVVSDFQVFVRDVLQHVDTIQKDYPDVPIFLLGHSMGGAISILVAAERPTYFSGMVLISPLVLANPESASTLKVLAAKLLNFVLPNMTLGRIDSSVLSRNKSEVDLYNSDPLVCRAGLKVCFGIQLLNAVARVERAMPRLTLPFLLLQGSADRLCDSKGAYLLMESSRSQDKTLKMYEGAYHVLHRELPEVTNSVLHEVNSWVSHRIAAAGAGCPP

Structure (SMILES) | IC50 (human MAGL [1]) [nM] | IC50 (human FAAH) [nM] | mechanism of inhibition (pre-incubation and dilution assays) (human MAGL [2]) | PDAC3 cell growth inhibitory effect (cell growth curves) [3] | levels of active caspase-3 [4] | TAMRA-FP labelling of MAGL bands (ABPP) (MAGL) | scratch area closed (PDAC3 cells) [%] | levels of active caspase-3 [5] [ng/mL] | apoptosis fold induction/change (PDAC2 cells) [fold]
O=C(c1ccc(Sc2ccccc2)cc1)C1CCN(C(=O)c2cc(O)ccc2F)CC1 [Compound 5b] | 30.5 ± 1.8 | > 10000 |  |  |  |  |  |  | 
O=C(Oc1ccc([N+](=O)[O-])cc1)N1CCC(C(O)(c2ccc3c(c2)OCO3)c2ccc3c(c2)OCO3)CC1 [JZL-184] |  |  | irreversible mechanism of action | effective in reducing PDAC3 proliferation | similarly effective in stimulating caspase-3 | can fully compete with the probe | 43 ± 8 |  | 
Nc1ccn([C@@H]2O[C@H](CO)[C@@H](O)C2(F)F)c(=O)n1 [gemcitabine] |  |  |  |  | significantly higher levels of active caspase-3 |  |  | 0.88 | ~5
